Experimental data taken from patent US4806534A, “Therapeutically active flavonyl-1,4-dihydrophyridines” (Recordati S.A., Chemical & Pharmaceutical Company, priority 1985, dated 1989).
Like-named read-outs stand apart in the source and are kept apart here.

What was measured:
urinary bladder = assay: Cystometric recordings in conscious rats (urodynamic parameters); assay type: in vivo; conditions: conscious rat, perfusion started 60 min after administration
Experimental: The activity on the urodynamic parameters was detected by cystometric recordings, carried out in conscious rats, according to the method of […] et al, IRCS Medicinal Science, in press (1986), similar to that described by Sjogren, Acta Pharmacol. Toxicol., 39, 177 (1976). The intravesical pressure was recorded during a continuous infusion of saline (37° C.) into the urinary bladder at the constant rate of 0.15 ml/min. […] The perfusion started 60 minutes after administration of the compound.

[1] = LD50 acute toxicity in mice, i.p. and p.o. (Weil method); conditions: mouse, in vivo
Experimental: The LD50 of the novel compounds of the invention was determined in mice, both i.p. and p.o., following the method described by C. S. Weil, Biometrics, 8, 249 (1952).

Compound | % Change BVC (bladder volume capacity) (urinary bladder; 10 mg/kg p.o.) | % Change MP (micturition pressure) (urinary bladder; 10 mg/kg p.o.) [%] | % Change BVC (bladder volume capacity) (urinary bladder; 30 mg/kg p.o.) | % Change MP (micturition pressure) (urinary bladder; 30 mg/kg p.o.) [%] | LD50 ([1]; ip, read-out: LD50 i.p.) [mg/kg] | LD50 ([1]; po, read-out: LD50 p.o.) [mg/kg]
COC(=O)C1=C(C)NC(C)=C(C(=O)OC)C1c1cccc2c(=O)c(C)c(-c3ccccc3)oc12 [i, Dimethyl 2,6-dimethyl-4-(3-methylflavon-8-yl)-1,4-dihydropyridine-3,5-dicarboxylate] | +18% | -14 | +21% | -19 | 889 | > 3000
CC1=C(C(=O)OCCN2CCCCC2)C(c2cccc3c(=O)c(C)c(-c4ccccc4)oc23)C(C(=O)OC(C)C)=C(C)N1 (centres unmarked) [iv, Isopropyl 2,N-piperidinoethyl 2,6-dimethyl-4-(3-methylflavon-8-yl)-1,4-dihydropyridine-3,5-dicarboxylate] | – | – | – | – | 222 | > 3000
CC1=C(C(=O)OCCN(C)Cc2ccccc2)C(c2cccc3c(=O)c(C)c(-c4ccccc4)oc23)C(C(=O)OC(C)C)=C(C)N1 (centres unmarked) [v, isopropyl 2-(N-benzyl-N-methylamino)ethyl 2,6-dimethyl-4-(3-methylflavon-8-yl)-1,4-dihydropyridine-3,5-dicarboxylate] | +19% | -16 | +22% | -23 | 959 | > 3000
CC1=C(C(=O)OCCN(C)CCC(c2ccccc2)c2ccccc2)C(c2cccc3c(=O)c(C)c(-c4ccccc4)oc23)C(C(=O)OC(C)C)=C(C)N1 (centres unmarked) [vi, isopropyl 2-(N-(3,3-diphenylpropyl)-N-methylamino)ethyl 2,6-dimethyl-4-(3-methylflavon-8-yl)-1,4-dihydropyridine-3,5-dicarboxylate] | – | – | +31% | -1 | > 1000 | > 3000
C#CCOC(=O)C1=C(C)NC(C)=C(C(=O)OC)C1c1cccc2c(=O)c(C)c(-c3ccccc3)oc12 (centres unmarked) [xii, Methyl propargyl 2,6-dimethyl-4-(3-methylflavon-8-yl)-1,4-dihydropyridine-3,5-dicarboxylate] | – | – | – | – | 597 | > 3000
CCOC(=O)C1=C(C)NC(C)=C(C(=O)OC)C1c1cccc2c(=O)c(C)c(-c3ccccc3)oc12 (centres unmarked) [viii, Methyl ethyl 2,6-dimethyl-4-(3-methylflavon-8-yl)-1,4-dihydropyridine-3,5-dicarboxylate] | – | – | – | – | > 1000 | > 3000
CC1=C(C(=O)OCCCl)C(c2cccc3c(=O)c(C)c(-c4ccccc4)oc23)C(C(=O)OC(C)C)=C(C)N1 (stereo not drawn) [iii, Isopropyl beta-chloroethyl 2,6-dimethyl-4-(3-methylflavon-8-yl)-1,4-dihydropyridine-3,5-dicarboxylate] | – | – | +15% | -1 | > 1000 | > 3000
